The source made the active and inactive calls.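 The calls were made as follows: active = compounds giving half or more protection of infected cells from virus-caused growth loss, again on retest; inactive = the rest.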 Where only a bound is given, the exact number is not on record here.

These results are taken from PubChem BioAssay AID179 (DTP/NCI, 2004).

For the experiment, the system named is CEM cells HIV-1 protection, formazan growth assay. Kind of experiment: NCI AIDS Antiviral Assay. The conditions noted are these: for IC50: measured here: growth of uninfected CEM cells. The essentials:
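Soluble formazan readout of cell growth; CEM cells ± HIV-1; 5 drug concs. ≥50% protection → retest; ≥50% again = moderately active; reproducible 100% = confirmed active.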

Regarding `CCC(=O)CCCC=C(c1cc(Cl)c(OC)c(C(=O)CC)c1)c1cc(Cl)c(OC)c(C(=O)CC)c1`, the EC50 is above 200 µM and the concentration for half-maximal inhibition (IC50) came to 6.31 µM.
For the molecule `OC1C(O)C(O)C2(CO2)C(O)C1O` (configuration not stated), the EC50 was above 200 µM and the half-maximal inhibitory concentration (IC50) is above 200 µM.
`CC(C)CC1C(=O)NCCC(NC(=O)C(N)Cc2ccc(O)cc2)C(=O)NC(Cc2ccccc2)C(=O)NC(Cc2ccccc2)NC1=O` (configuration not stated): the EC50 was above 100 µM and the IC50 was above 100 µM.
As to `C=C=C(Sc1ccccc1)C(C)(C)OC(C)=O`, the EC50 was above 50.1 µM and the IC50 is 14.5 µM.
The matching figures for `O=C(c1ccncc1)n1nc(-c2ccccc2)c(N=Nc2ccccc2[N+](=O)[O-])c1-c1ccccc1`: above 39.8 µM and above 39.8 µM.
The matching figures for `NC1=NNC2(C(=O)N1)c1ccccc1-c1ccccc12`: above 200 µM and 46.8 µM.
For the molecule `CNC(=S)N/N=C/c1cccc(C)n1`, the EC50 was above 200 µM and the half-maximal inhibitory concentration (IC50) was 19.5 µM.
The matching figures for `COc1ccc(NC(=O)C(=O)/C=C(\O)c2ccccc2)cc1`: above 200 µM and 9.33 µM.
The corresponding values for `Cc1cc(NS(=O)(=O)c2ccc(Nc3c4ccccc4nc4c(C(=O)Nc5ccc(S(=O)(=O)N=C(N)N)cc5)ccc(Cl)c34)cc2)no1` are above 51.3 µM and above 51.3 µM.
With `O=C(/C=C/c1ccc(O)c(O)c1)CC(=O)/C=C/c1ccc(O)c(O)c1`, the EC50 was above 200 µM and the IC50 amounted to 10.2 µM.
As for `COc1ccc2nc3ccc(OC)cc3c(SCCCl)c2c1`, the outcome was inactive.
Turning to `c1csc(-c2nnc(C34CC5CC(CC(C5)C3)C4)o2)c1`, the EC50 is above 200 µM and the IC50 was determined as 50.1 µM.
For the molecule `CC(=O)C(CN1C(=O)c2ccccc2C1=O)C(C)=O`, the EC50 was above 38.9 µM and the half-inhibitory concentration (IC50) is above 38.9 µM.
On to `c1ccc(-c2ccccc2SSc2ccccc2-c2ccccc2)cc1`, for which the EC50 was above 200 µM and the IC50 is 5.37 µM.
Regarding `OCC(O)C(O)c1nn(-c2ccccc2)c2nc3cc(Cl)c(Cl)cc3nc12` (configuration not stated), the result was inactive.
Take `Cc1cc2c(O)c(c1)CN(Cc1ccccc1)Cc1cc(C)cc(c1O)CN(Cc1ccccc1)Cc1cc(C)cc(c1O)CN(Cc1ccccc1)C2`: the EC50 is above 50.1 µM and the 50% inhibitory concentration (IC50) is above 50.1 µM.
For `CCOC(=O)c1cc2c(C(=O)c3ccc([N+](=O)[O-])cc3)c(C(C)=O)ccc2[nH]1`, the EC50 was above 200 µM and the concentration for half-maximal inhibition (IC50) turned out to be 174 µM.
The matching figures for `CN(C)C(=NCc1ccccc1)NC#N`: above 1230 µM and above 1230 µM.
The corresponding values for `CCCCC(C(=O)NCCNC(=O)CCC(=O)N(C)O)C(=O)NCCNC(=O)CCC(=O)N(C)O` are above 200 µM and 112 µM.
The matching figures for `C=C1C(=O)O[C@@H]2CC(C)C3C(OC(C)=O)CC(OC(C)=O)[C@@]3(C)C[C@H]12` (some centres not stated): above 102 µM and 5.37 µM.
With `CC(C)C1CC(CO)(CNc2cc(Cl)nc(N)n2)C1` (configuration not stated), the EC50 was above 20 µM and the IC50 turned out to be 19.5 µM.
Take `Nc1ncnc2c1ncn2CC(O)CO` (configuration not stated): the result was inactive.
`Clc1cccc(Cl)c1C=NC12CC3CC(CC(C3)C1)C2`: the EC50 was above 200 µM and the 50% inhibitory concentration (IC50) was above 200 µM.
Turning to `Clc1ccc2nc3nc(-c4ccccc4)c(-c4ccccc4)nc3nc2c1`, the EC50 was above 19.5 µM and the half-maximal inhibitory concentration (IC50) is above 19.5 µM.
Consider `COCN1COCN(COC)C1=O`, for which the EC50 was above 646 µM and the 50% inhibitory concentration (IC50) is above 646 µM.
As for `COc1cc(-c2cc(OC)c(OC)c3ccc(Br)cc23)c2cc(Br)ccc2c1OC`, the EC50 is above 200 µM and the 50% inhibitory concentration (IC50) stood at 102 µM.
For the molecule `COc1cc(OC)c2c(c1)C(=O)c1cccc(O)c1C2=O`, the outcome was inactive.
For the molecule `Cc1cc2c(c(C(=O)NCCC(=O)N[C@@H](C)C(=O)OCc3ccccc3)c1)Oc1c(cc(C)cc1C(=O)NCCC(=O)N[C@@H](C)C(=O)OCc1ccccc1)S2`, the EC50 was above 200 µM and the half-maximal inhibitory concentration (IC50) was above 200 µM.
In the case of `O=C(CCCN1CCC2(CC1)C(=O)NCN2c1ccc(F)cc1)c1ccc(F)cc1`, the EC50 is above 200 µM and the half-maximal inhibitory concentration (IC50) was above 200 µM.
As to `O=C(NCCN1CCCCC1)c1ccc(Br)cc1`, the EC50 is above 200 µM and the IC50 is above 200 µM.
On to `O=C1NC(=O)C23CCCCc4cccc(c42)C(=O)C13` (configuration not stated), for which the EC50 is above 372 µM and the IC50 is above 372 µM.
Take `COP(=O)(OC)C(NC(=O)C(F)(F)F)(c1ccccc1)C(F)(F)F` (configuration not stated): the EC50 is above 200 µM and the IC50 is above 200 µM.
Turning to `O=[N+]([O-])C(Cl)=C/C(=C(\Cl)SCc1ccccc1)[N+](=O)[O-]`, the EC50 was above 200 µM and the IC50 came to 12 µM.
In the case of `CCS(=O)(=O)CCn1c(=O)c2c(ncn2C)n(C)c1=O`, the EC50 is above 200 µM and the 50% inhibitory concentration (IC50) was above 200 µM.
Regarding `OC12CCC3(OC4CCCCO4)c4ccccc4C3C1c1ccccc12` (configuration not stated), the EC50 was above 200 µM and the IC50 amounted to 89.1 µM.
On to `CCOC(=O)[C@H]1Nc2ccc(C)cc2C2c3ccccc3CC21` (some centres not stated), for which the EC50 was above 17 µM and the IC50 was above 17 µM.
Regarding `COc1ccc(-c2cc(=O)c3c(OC)c(O)c(OC)cc3o2)cc1`, the EC50 is above 200 µM and the 50% inhibitory concentration (IC50) was determined as 38.9 µM.
On to `CC(=O)/C(=C\c1ccccc1)C(=O)Nc1ccccc1`, for which the EC50 was above 38 µM and the half-inhibitory concentration (IC50) was above 38 µM.
Consider `CC1(C)OC2OC(C3COS(=O)O3)C(Cl)C2O1` (configuration not stated), for which the EC50 is above 871 µM and the IC50 stood at 490 µM.
The matching figures for `O=C(O)Cc1cccc(=O)c(O)c1C(=O)O`: above 200 µM and 129 µM.
As to `O=CC[C@H]1C=Cc2ccccc2[C@@]12C=CC(=O)CC2`, the EC50 was above 28.8 µM and the concentration for half-maximal inhibition (IC50) came to 21.9 µM.
The corresponding values for `O=C=Nc1cccc(S(=O)(=O)c2cccc(N=C=O)c2)c1` are above 200 µM and above 200 µM.
Turning to `CC1(C)O[C@@H](CC/C=C/CO)[C@H](CC/C=C/CO)O1`, the result was inactive.
Regarding `CC1CC(C)(C)N/C(=C/C(=O)N2Cc3cc4ccccc4nc3C2)O1` (configuration not stated), the EC50 was above 200 µM and the IC50 is above 200 µM.
As to `C#CC1(O)CCC2[C@@H]3CCc4cc(Oc5nc(F)nc(-c6c7ccccc7c(SCC)n6CCC)n5)ccc4C3CC[C@@]21C` (some centres not stated), the EC50 is above 6.17 µM and the IC50 was above 6.17 µM.
On to `COc1cc(OS(=O)(=O)O)c2c(c1)cc(O)c1c(=O)cc(C)oc12`, for which the EC50 is above 151 µM and the IC50 is above 151 µM.
In the case of `Cc1cc(C)nc(NS(=O)(=O)c2ccc(Nc3c4ccccc4nc4c(C(=O)NCCN(C)C)ccc(Cl)c34)cc2)n1`, the result was inactive.
With `N=C(N)Oc1ccc(Cl)cc1`, the EC50 is above 200 µM and the IC50 stood at 26.9 µM.
The matching figures for `COC(=O)C1=C2Nc3ccccc3[C@@]23CCN(Cc2ccccc2)C3CC1[C@@H]1COC(C)(C)O1` (some centres not stated): above 100 µM and 51.3 µM.
With `O=C1NCC(c2ccccc2)(c2ccccc2)O1`, the EC50 was above 200 µM and the IC50 came out at 151 µM.
The corresponding values for `COc1cc2c(cc1OC)C1CNC(C2)c2cc(OC)c(OC)cc21` (configuration not stated) are above 200 µM and above 200 µM.
Turning to `NC(CCc1nc(-c2cccc([N+](=O)[O-])c2)cs1)C(=O)O` (configuration not stated), the outcome was inactive.
`O=c1ccn([C@@H]2C[C@@H]2CO)c(=O)[nH]1`: the outcome was inactive.
Consider `CCCCOC(=O)c1ccc(NC(=O)C(C)N(CC)CC)cc1` (configuration not stated), for which the EC50 is above 200 µM and the half-maximal inhibitory concentration (IC50) was determined as 36.3 µM.
As for `COc1cc2c(c(OC)c1OC)-c1ccc(OC)c(=O)cc1C(NC(=O)CCCCCNc1ccc(N=[N+]=[N-])cc1[N+](=O)[O-])CC2` (configuration not stated), the EC50 was above 200 µM and the IC50 was 0.0631 µM.
The corresponding values for `NC(=O)c1c[se]c(C2OC(COP(=O)(O)CP(=O)(O)OCC3OC(n4cnc5c(N)ncnc54)C(O)C3O)C(O)C2O)n1` (configuration not stated) are above 100 µM and 16.6 µM.
The matching figures for `O=c1[nH]nc(NCCc2ccccc2)c2nnn(Cc3ccccc3)c12`: above 200 µM and above 200 µM.
The matching figures for `CCOC(=S)SC1OC(COC(C)=O)C(OC(C)=O)C(OC(C)=O)C1OC(C)=O` (configuration not stated): above 200 µM and 35.5 µM.
Regarding `CCOc1cnn(-c2ccccc2)c(=O)c1Cl`, the EC50 was above 1000 µM and the IC50 came out at 437 µM.
Take `CNCC(=O)NC(CO)C(=O)NC(CO)C(=O)NC1C(C(N)=O)OC(n2ccc(N)nc2=O)C(O)C1O` (configuration not stated): the result was inactive.
For the molecule `CC(C(=O)O)n1[se]c2ccccc2c1=O` (configuration not stated), the EC50 was 12.6 µM and the IC50 came to 120 µM.
The matching figures for `CC1(C)N([O-])[N+](=O)C1(C)Br` (configuration not stated): above 200 µM and above 200 µM.
The matching figures for `CC(C)c1ccc2c(c1)CCC1C2(C)CCCC1(C)C(O)c1ccccc1` (configuration not stated): above 200 µM and 38 µM.
Consider `CCOc1cc[n+](C(=C=[N-])C#N)cc1`, for which the outcome was inactive.
Same read-out and setting: then `NC(N)=Nc1ccc(N)cc1`, with “inactive”.
Regarding `NC(=O)CC[C@H]1C(=O)N=C(N)N1C(=O)OCc1ccccc1`, the EC50 was above 200 µM and the IC50 was above 200 µM.
As for `O=C1/C(=C/c2ccccc2)CN(C(=O)OCC(Cl)(Cl)Cl)C/C1=C\c1ccccc1`, the outcome was inactive.
As to `O=C1CC(=O)N(C=C2C(=O)NC(=O)NC2=O)C(=S)N1`, the EC50 was above 200 µM and the IC50 was above 200 µM.
For `CCOC1SC(SC)=NN1C(=O)C(OC(C)=O)C(OC(C)=O)C(OC(C)=O)C(OC(C)=O)C(=O)N1N=C(SC)SC1OCC` (configuration not stated), the result was inactive.
`CC1(C)O[C@@H]([C@@H](O)[C@H](O)C2SCCCS2)[C@@H](CO)O1`: the EC50 is above 200 µM and the half-maximal inhibitory concentration (IC50) was above 200 µM.
As to `Nn1c(Cc2ccc(Cl)cc2)n[nH]c1=O`, the EC50 was above 200 µM and the 50% inhibitory concentration (IC50) is above 200 µM.
In the case of `O=c1c2sc3ccccc3sc=2c(=O)c2c(Cl)c(Cl)c(Cl)c(Cl)c12`, the EC50 is above 126 µM and the IC50 was 58.9 µM.
`COc1cc2ccc(C(=O)O)cc2cc1OC`: the outcome was inactive.

The term EC50 denotes the concentration giving half of the maximal effect. By IC50 is commonly meant the concentration that gives 50% inhibition.
